Consider 18 molecules from publication PMC10222686, “Synthesis and Molecular Docking Studies of Alkoxy- and Imidazole-Substituted Xanthones as α-Amylase and α-Glucosidase Inhibitors” (Molecules, 2023).

The test system of one data set is α-glucosidase. Description: α-Glucosidase inhibition assay (p-NPG substrate). Conditions: mean ± SD, n = 4. The class given is biochemical, Saccharomyces cerevisiae.
The nature of data set [1]: DPPH radical scavenging assay. Particulars: mean ± SD, n = 4. Here is the method:
The scavenging of free radicals by the synthesized compounds was assessed based on the previously reported DPPH radical assay, with slight modifications. The reaction mixture consisted of 50 µL of compound in DMSO at various concentrations (from 2.5 mM to 0.2 mM) and 150 µL of DPPH solution at 133.33 µM in absolute ethanol. The reaction components were added at a ratio of 1:3 (v/v). The mixture was incubated at 37 °C for 30 min before absorbance was read at 517 nm using a microplate reader (Epoch, BioTek®). Butylhydroxytoulene (BHT) served as the positive control. Scavenging capacity (%) is expressed as the percentage decrease in DPPH. SC% = [(Acontrol − Atest)/Acontrol] × 100 where Acontrol is absorbance of the DPPH solution (control) and Atest is the absorbance of the solution of DPPH and one of the compounds.
For orientation: Loss of DPPH colour is used to gauge radical scavenging.

The next data set concerns the target T1, α-amylase (Sus scrofa, UniProt P00690).
T1 construct: purchased Sigma-Aldrich; host or cells: porcine pancreas
T1 sequence (P00690 16-511): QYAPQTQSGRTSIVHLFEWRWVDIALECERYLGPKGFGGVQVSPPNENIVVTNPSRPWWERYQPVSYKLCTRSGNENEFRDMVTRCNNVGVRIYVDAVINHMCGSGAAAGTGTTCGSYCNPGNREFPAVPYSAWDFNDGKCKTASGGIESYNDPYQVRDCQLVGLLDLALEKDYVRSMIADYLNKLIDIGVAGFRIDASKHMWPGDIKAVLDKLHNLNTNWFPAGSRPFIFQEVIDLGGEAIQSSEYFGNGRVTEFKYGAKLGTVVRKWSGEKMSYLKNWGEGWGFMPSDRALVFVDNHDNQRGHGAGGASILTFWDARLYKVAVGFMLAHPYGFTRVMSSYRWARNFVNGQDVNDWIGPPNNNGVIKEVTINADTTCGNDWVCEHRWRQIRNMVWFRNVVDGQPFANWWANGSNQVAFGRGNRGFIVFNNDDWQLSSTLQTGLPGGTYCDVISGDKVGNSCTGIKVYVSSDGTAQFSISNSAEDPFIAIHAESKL
In words: α-Amylase inhibition assay (starch/DNS).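 On all read-outs here: reducing sugar measured by DNS colour at 540 nm, inhibition relative to enzyme reaction lacking test compound, blank without enzyme subtracted for background.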 The class given is biochemical, porcine. Conditions: mean ± SD, n = 4; for inhibition at 100 µM: NI = no inhibition; for IC50: compounds precipitate at 200 µM.

One may read the IC50 as the point on the concentration scale where inhibition reaches its midpoint. One may read the melting point as the temperature, or range, at which the solid turns liquid. By inhibition is commonly meant how much of the control response was suppressed. A lower inhibition goes with a weak effect.

Description for α-amylase: α-Amylase inhibitory activity was quantified according to the method developed by Chokki et al., with some modifications [65]. […] Finally, 100 µL of 3,5-dinitrosalicylic acid (DNS) was added and heated at 100 °C for 20 min, and absorbance was then read at 540 nm in a microplate reader (Epoch, BioTek®). The reaction system without any test compound was used as the control, and the system without α-amylase served as a blank for correcting background absorbance. The percentage of α-amylase inhibition was calculated for each sample with Equation (2):(2) % inhibition=Control absorbance−sample absorbance/Control absorbance×100
(§1) All measurements were performed in quadruplicate and the values are expressed as the mean ± standard deviation.
Description for α-glucosidase: The inhibitory activity of the compounds on α-glucosidase inhibition was quantified according to the method described by Salehi et al., with slight modifications [64]. A reaction was prepared by mixing 20 µL α-glucosidase solution (0.5 unit/mL), 120 µL 0.1 M phosphate buffer (pH 6.9), and 10 µL of the samples at concentrations from 400 µM to 4.0 µM. The solution was incubated in a 96-well microplate at 37 °C for 15 min. The enzymatic reaction was initiated by adding 20 µL of 5 mM p-NPG solution to 0.1 M phosphate buffer (pH 6.9), followed by incubation at 37 °C for 15 min. The reaction was stopped by adding 80 µL of 0.2 M sodium carbonate solution, and absorbance was read at 405 nm in a microplate reader (Epoch®, BioTek Instrument, Winooski, EUA). The reaction system without any test compounds was used as control, whereas the system without α-glucosidase served as blank for correcting background absorbance. The rate of α-glucosidase inhibition exerted by each sample was calculated with Equation (1):(1) % inhibition=Control absorbance−sample absorbance/Control absorbance×100
as §1

On to `COc1cc2oc3ccccc3c(=O)c2cc1OCC(C)=O` [Compound 6b, 3-Methoxy-2-(2-oxopropoxy)-9H-xanthen-9-one], for which the melting point lay in the range of 144 to 145 °C. In the data set on α-glucosidase, the “α-Glucosidase Inhibition (%) at 400 µM” value was 9.3 ± 0.1% and the IC50 was more than 400 µM. The “% DPPH Scavenging Activity (2.5 mM)” value in data set [1] is on record as 11.8 ± 1.07 ^F,G %.

On to `COc1cc2oc3ccccc3c(=O)c2cc1OCCCCBr` [Compound 9a, 2-(4-Bromobutoxy)-3-methoxy-9H-xanthen-9-one], for which, in the data set on α-glucosidase, the “α-Glucosidase Inhibition (%) at 400 µM” value turned out to be 97.8 ± 0.3% and the IC50 turned out to be 40 ± 0.018 µM. At α-amylase, this molecule registered an inhibition at 100 µM of 62.9 ± 0.2% and an IC50 of 73.5 ± 0.04 µM. Further, the “% DPPH Scavenging Activity (2.5 mM)” value in data set [1] was 19.5 ± 1.22 ^D %.

In turn, `COc1cc2oc3ccccc3c(=O)c2cc1OCC(O)Cn1ccnc1-c1ccccc1` (centres unmarked) [Compound 12b, 2-(2-Hydroxy-3-(2-phenyl-1H-imidazol-1-yl)propoxy)-3-methoxy-9H-xanthen-9-one] showed a melting point of 157 to 159 °C. In the data set with α-glucosidase, the “α-Glucosidase Inhibition (%) at 400 µM” value is 84.9 ± 0.57% and it took 112.8 ± 0.12 µM to reach half-maximal inhibition (IC50). Also, on α-amylase, at 100 µM the inhibition was 8.7 ± 0.81% and the IC50 was more than 200 µM. The “% DPPH Scavenging Activity (2.5 mM)” value in data set [1] is reported as 16.3 ± 1.45 ^D,E %.

Consider `COc1cc2oc3ccccc3c(=O)c2cc1OCCCCn1ccnc1-c1ccccc1` [Compound 10b, 3-Methoxy-2-(4-(2-phenyl-1H-imidazol-1-yl)butoxy)-9H-xanthen-9-one], for which the melting point was 132 to 134 °C. Also, in the data set with α-glucosidase, the “α-Glucosidase Inhibition (%) at 400 µM” value is given as 90.2 ± 0.21% and the IC50 is 212.4 ± 0.1 µM. At α-amylase, this molecule had an inhibition at 100 µM of 9.7 ± 0.21% and an IC50 of more than 200 µM. The “% DPPH Scavenging Activity (2.5 mM)” value in data set [1] is 12.2 ± 0.08 ^F,G %.

`COc1cc2oc3ccccc3c(=O)c2c2c1OC(C)(C)C=C2` [Compound 8, 5-Methoxy-3,3-dimethylpyrano[3,2-a]xanthen-12(3H)-one]: in the data set on α-glucosidase, the “α-Glucosidase Inhibition (%) at 400 µM” value was 38.3 ± 0.04% and the IC50 is more than 400 µM. This molecule came in with an inhibition at 100 µM against α-amylase of less than 0%. Further, the “% DPPH Scavenging Activity (2.5 mM)” value in data set [1] is 1.9 ± 0.73 ^H,I %.

With `C=CCc1c(O)c(OC)cc2oc3ccccc3c(=O)c12` [Compound 7, 1-Allyl-2-hydroxy-3-methoxy-9H-xanthen-9-one], in the data set with α-glucosidase, the “α-Glucosidase Inhibition (%) at 400 µM” value came out at 75.5 ± 0.50% and the IC50 stood at 196.4 ± 0.07 µM. At α-amylase, this molecule had an inhibition at 100 µM of 7.8 ± 0.1% and an IC50 of more than 200 µM. In data set [1], the “% DPPH Scavenging Activity (2.5 mM)” value was 45.9 ± 2.89 ^B† %.

In turn, `COC(=O)COc1cc2c(=O)c3ccccc3oc2cc1OC` [Compound 6a, Methyl 2-((3-methoxy-9-oxo-9H-xanthen-2-yl)oxy)acetate] gave a melting point of 139 to 140 °C. Further, in the data set with α-glucosidase, the “α-Glucosidase Inhibition (%) at 400 µM” value was 99.5 ± 0.2% and it took 143.6 ± 0.17 µM to reach half-maximal inhibition (IC50). Further, on α-amylase, the inhibition at 100 µM turned out to be 8.7 ± 0.2% and the IC50 is more than 200 µM. Also, the “% DPPH Scavenging Activity (2.5 mM)” value in data set [1] is reported as 1.7 ± 0.91 ^H,I %.

`C=CCc1c(OCCCCn2ccnc2)c(OC)cc2oc3ccccc3c(=O)c12` [Compound 10d, 2-(4-(1H-Imidazol-1-yl)butoxy)-1-allyl-3-methoxy-9H-xanthen-9-one]: in the data set with α-glucosidase, the “α-Glucosidase Inhibition (%) at 400 µM” value is 2.5 ± 0.01% and the IC50 is more than 400 µM. The inhibition at 100 µM against α-amylase is less than 0%. The “% DPPH Scavenging Activity (2.5 mM)” value in data set [1] is 5.1 ± 0.08 ^H %.

Take `C=CCc1c(OCC(=O)c2ccc(Cl)cc2)c(OC)cc2oc3ccccc3c(=O)c12` [Compound 6e, 1-Allyl-2-(2-(4-chlorophenyl)-2-oxoethoxy)-3-methoxy-9H-xanthen-9-one]: in the data set with α-glucosidase, the “α-Glucosidase Inhibition (%) at 400 µM” value was 98.6 ± 0.90% and the midpoint of inhibition, the IC50, lay at 12.8 ± 0.01 µM. Besides, on α-amylase, the inhibition at 100 µM is 60.3 ± 0.1% and the IC50 is 68.1 ± 0.04 µM. The “% DPPH Scavenging Activity (2.5 mM)” value in data set [1] is reported as 10.4 ± 0.83 ^F,G %.

Regarding `COc1cc2oc3ccccc3c(=O)c2cc1O` [Compound 1, 2-Hydroxy-3-methoxy-9H-xanthen-9-one], in the data set with α-glucosidase, the “α-Glucosidase Inhibition (%) at 400 µM” value amounted to 26.5 ± 0.81% and the IC50 was more than 400 µM. Further, on α-amylase, the inhibition at 100 µM is 98.7 ± 0.11% and the IC50 came to 26.5 ± 0.01 µM.

`COc1cc2oc3ccccc3c(=O)c2cc1OCC1CO1` (centres unmarked) [Compound 11a, 3-Methoxy-2-(oxiran-2-ylmethoxy)-9H-xanthen-9-one] had a melting point of 143 to 144 °C. Also, in the data set with α-glucosidase, the “α-Glucosidase Inhibition (%) at 400 µM” value is reported as 0.48 ± 0.02% and the IC50 was more than 400 µM. The inhibition at 100 µM at α-amylase is less than 0%. The “% DPPH Scavenging Activity (2.5 mM)” value in data set [1] was 19.8 ± 1.04 ^D %.

Turning to `C=CCOc1cc2c(=O)c3ccccc3oc2cc1OC` [Compound 6d, 2-(Allyloxy)-3-methoxy-9H-xanthen-9-one], the melting point fell in the range of 150 to 151 °C. In addition, in the data set with α-glucosidase, the “α-Glucosidase Inhibition (%) at 400 µM” value was 22.1 ± 1.04% and the IC50 is more than 400 µM. The inhibition at 100 µM against α-amylase was less than 0%. For the same molecule, in data set [1], the “% DPPH Scavenging Activity (2.5 mM)” value was 3.9 ± 0.58 ^H,I %.

`C=CCc1c(OCC(O)Cn2ccnc2)c(OC)cc2oc3ccccc3c(=O)c12` (centres unmarked) [Compound 12d, 1-Allyl-2-(2-hydroxy-3-(1H-imidazol-1-yl)propoxy)-3-methoxy-9H-xanthen-9-one] had a melting point of 187 to 189 °C. Further, in the data set with α-glucosidase, the “α-Glucosidase Inhibition (%) at 400 µM” value is listed as 52.2 ± 0.87% and the IC50 worked out at 400.2 ± 0.24 µM. For the same molecule, at α-amylase, the inhibition at 100 µM turned out to be 1.5 ± 0.1% and the IC50 was more than 200 µM. The “% DPPH Scavenging Activity (2.5 mM)” value in data set [1] is listed as 10.1 ± 0.87 ^G %.

Take `C[C@H]1O[C@H](O[C@H]2[C@H](O)[C@@H](O)[C@@H](O[C@H]3[C@H](O)[C@@H](O)C(O)O[C@@H]3CO)O[C@@H]2CO)[C@H](O)[C@@H](O)[C@@H]1N[C@H]1C=C(CO)[C@@H](O)[C@H](O)[C@H]1O` (some centres unmarked) [Acarbose, acarbose, reference compound]: the “α-Glucosidase Inhibition (%) at 400 µM” value in the data set with α-glucosidase turned out to be 63.18 ± 0.7%. This molecule also returned an inhibition at 100 µM against α-amylase of 99.3 ± 0.06%.

As for `COc1cc2oc3ccccc3c(=O)c2cc1OCCCCn1ccnc1` [Compound 10a, 2-(4-(1H-imidazol-1-yl)butoxy)-3-methoxy-9H-xanthen-9-one], the melting point was 137 to 138 °C. Also, in the data set on α-glucosidase, the “α-Glucosidase Inhibition (%) at 400 µM” value was 1.3 ± 0.01% and the IC50 is more than 400 µM. The same molecule yielded an inhibition at 100 µM against α-amylase of less than 0%. In data set [1], the “% DPPH Scavenging Activity (2.5 mM)” value is reported as 0.8 ± 0.01 ^I %.

`C=CCc1c(OCC(O)Cn2ccnc2-c2ccc(Cl)cc2)c(OC)cc2oc3ccccc3c(=O)c12` (centres unmarked) [Compound 12f, 1-Allyl-2-(3-(2-(4-chlorophenyl)-1H-imidazol-1-yl)-2-hydroxypropoxy)-3-methoxy-9H-xanthen-9-one] displayed a melting point of 116 to 118 °C. Besides, in the data set on α-glucosidase, the “α-Glucosidase Inhibition (%) at 400 µM” value is listed as 99.1 ± 1.31% and the IC50 was determined as 71.9 ± 0.08 µM. At α-amylase, this molecule gave an inhibition at 100 µM of 4.7 ± 0.32% and an IC50 of more than 200 µM. In data set [1], the “% DPPH Scavenging Activity (2.5 mM)” value is reported as 18.1 ± 1.57 ^D %.

For the molecule `Cc1cc(C(C)(C)C)c(O)c(C(C)(C)C)c1` [BHT, butylhydroxytoluene, reference compound], the “% DPPH Scavenging Activity (2.5 mM)” value in data set [1] was 85.2 ± 3.33 ^A‡ %.

`COC(=O)/C(=C/N(C)C)Oc1cc2c(=O)c3ccccc3oc2cc1OC` [Compound 5, Methyl (Z)-3-(dimethylamino)-2-((3-methoxy-9-oxo-9H-xanthen-2-yl)oxy)acrylate]: in the data set on α-glucosidase, the “α-Glucosidase Inhibition (%) at 400 µM” value stood at 15.2 ± 0.16% and the half-inhibitory concentration (IC50) was more than 400 µM. The molecule also yielded an inhibition at 100 µM against α-amylase of less than 0%. Besides, the “% DPPH Scavenging Activity (2.5 mM)” value in data set [1] is listed as 13.9 ± 1.14 ^E,F %.
